Laboratory results published in patent US20210283053A1, “LIQUID FORMULATIONS OF GLUCAGON ANALOGUES” (Zealand Pharma A/S, priority 2020, published 2021).

Test system: RYGB-operated individuals with confirmed postprandial hypoglycaemia
Assay: Crossover study with liquid mixed meal test, postprandial hypoglycaemia after Roux-en-Y gastric bypass
Type: in vivo, human
Conditions: for time spent in level 2 hypoglycaemia (<3.1 mmol/l): n=5, placebo 31.0±5; for nadir PG: placebo 3.0±0.2; for time spent in hypoglycaemia (<3.9 mmol/l): placebo 62.0±8; for PG incremental AUC (iAUC70-240 min) after drug administration: placebo 752±19, p<0.0001
From the text: Postprandial hypoglycaemia is a frequent and debilitating complication following Roux-en-Y gastric bypass (RYGB), and no effective treatment exists. In a proof-of-concept study, we investigated the effects of dasiglucagon, a novel, stable glucagon analogue, on postprandial hypoglycaemia after RYGB. The primary aim of the present study was to examine the effects of two doses of dasiglucagon on the postprandial nadir plasma glucose concentration (PG) and time spent in hypoglycaemia (<3.9 mmol/l) in RYGB-operated individuals with confirmed postprandial hypoglycaemia.
Ten RYGB-operated individuals (two males, eight females; BMI 34.6 (21.8-39.0) kg/m^2; age 46 (29-67) years; HbA1c 32 (29-42) mmol/mol; time since operation 9.3 (6-11.5) years; weight loss since operation 53.9 (25.1-92.0) kg)) with confirmed symptomatic postprandial hypoglycaemia (PG<3.5 mmol/l verified by a 6-day continuous glucose monitoring) completed a double-blinded, randomised, crossover study comprising three separate treatment days, each including a standardised liquid mixed meal test (25 kJ per kg body mass; 50 E % carbohydrates, 35 E % fat and 15 E % protein). A subcutaneous injection of either placebo, 80 or 200 μg dasiglucagon (D80μg and D200μg) was administered after the postprandial PG peak, approximately 10 minutes before the projected time point where the PG returned to fasting levels using a subject-specific linear regression model. Blood sampling and assessment of hypoglycaemic symptoms, by the Edinburgh Hypoglycaemia Symptom Scale, were performed at fixed time intervals. Data were analysed using linear mixed models and Tukey's corrections model for multiple comparisons.

Which results are given for “Hy-HSQGTFTSDYSKYLD-Aib-ARAEEFVKWLEST-OH [Compound 1, glucagon analogue (dasiglucagon)]”?
time spent in level 2 hypoglycaemia (<3.1 mmol/l) (80 μg subcutaneous, p>0.05): 7 ± 5 min; nadir PG (80 μg subcutaneous, p=0.002): 3.9 ± 0.3 mmol/L; time spent in hypoglycaemia (<3.9 mmol/l) (80 μg subcutaneous, p=0.05): 27.5 ± 12 min; PG incremental AUC (iAUC70-240 min) after drug administration (80 μg subcutaneous): 917 ± 22 mmol·min/L; participants who experienced level 2 hypoglycaemia (<3.1 mmol/l) (200 μg subcutaneous, five participants after placebo): none; time spent in level 2 hypoglycaemia (<3.1 mmol/l) (200 μg subcutaneous, p=0.01): 0.0 ± 0 min; nadir PG (200 μg subcutaneous, p=0.0002): 4.5 ± 0.2 mmol/L; time spent in hypoglycaemia (<3.9 mmol/l) (200 μg subcutaneous, p=0.003): 14.0 ± 9 min; PG incremental AUC (iAUC70-240 min) after drug administration (200 μg subcutaneous): 992 ± 28 mmol·min/L; changes in hypoglycaemic symptoms (Edinburgh Hypoglycaemia Symptom Scale) (between the three study days (placebo, 80 and 200 μg)): no significant changes
